Six substances from EP2878306B1, “MODIFIED PEPTIDE, CB RECEPTOR LIGAND, KIT, IN VITRO PROCESS FOR […] RECEPTOR BONDS, USES, PHARMACEUTICAL COMPOSITION FOR […] RECEPTOR ACTIVITY” (Proteimax Biotecnologia Ltda, priority 2012, dated 2014) can be followed below.

One data set addresses T1, CB1 receptor (Homo sapiens, UniProt P21554).
T1 construct: ligand for CB1 receptor through ELISA with striate membranes (5µg/pool) treated with 1µM of each drug; from tissue; host or cells: striatal ('striate') membranes
The data set can be described thus: ELISA with striate membranes and anti-CB1 antibody, receptor activating percentage regarding the control. Format: biochemical. Conditions: for activity in CB1 receptors: striate membranes 5µg/pool, 1µM of each drug, 2 hours, ambient temperature, compared to control and SeqID:1. As for the experimental part: (§1) The receptor activating percentage was calculated regarding the control, non-treated membrane (100%). […] Significant differences are indicated and p<0.05.
In general terms: An ELISA detects its analyte on a solid surface through an enzyme-linked reagent.

Data set [1] deals with Thin wistar rats. The data set can be described thus: Adiposity ratio determination. The data set is classed as in vivo. Conditions: 100 ug/Kg, 3 days orally; in comparison with Rimonabant and/or saline. The protocol:
Thin wistar rats were treated with a Rimonabant dosage (100 ug/Kg) or peptide 19 (Pep 19 100 ug/Kg) during 3 days orally. The measure of the adiposity ratio was performed after finishing the treatment using the formula (%), (I=Σ fat deposits/body weight x 100). The results are expressed by the animal weight measured at the treatment end (scale of g/100g). Rats administered with vehicle (saline) were subject to the same protocol (control).

The subject of data set [2] is Thin wistar rats. The data set can be described thus: Serum leptin concentration determination. Format: in vivo. As to conditions: 100 ug/Kg, 3 days orally; in comparison with saline. As for the experimental part:
Thin wistar rats were treated with a Rimonabant dosage (100 ug/Kg) or peptide 19 (Pep 19 100 ug/Kg) during 3 days orally. The measure of the serum leptin concentration was performed after finishing the treatment. The results are expressed ng/mL. Rats administered with vehicle (saline) were subject to the same protocol (control).

Data set [3] deals with animals supplemented with 20% saccharose. The data set can be described thus: Determination of the weight in animals supplemented with 20% saccharose. Format: in vivo, Rats wistar. As to conditions: 100 µg/Kg; 3th to 5th week of treatment. The protocol: Rats wistar fed with standard regimen supplemented with 20% saccharose were used in the drinking water during 60 days before and during the 30 days-treatment with SALINE (negative control), Rimonabant (positive control), Peptide 19 (Pep 19) in the concentration of 50µg/Kg and Peptide 19 (Pep 19) in the concentration of 100 µg/Kg.

Data set [4] deals with Thin wistar rats. The data set can be described thus: Test in Inguinal adipose tissue. The data set is classed as in vivo. As to conditions: 100 ug/Kg, 3 days orally; in comparison with Rimonabant and/or saline; scale g/100g. As for the experimental part: The measure of the adipose tissue was performed after finishing the treatment. The results are expressed by the inguinal adipose tissue weight measured at the treatment end (scale of g/100g). Rats administered with vehicle (saline) were subject to the same protocol (control).

Data set [5] has as its system animals supplemented with 20% saccharose. The data set can be described thus: Determination of the amount of inguinal adipose tissue in animals supplemented with 20% saccharose. The data set is classed as in vivo, Wistar rats. Conditions: 100µg/Kg; after the 30th day of treatment; in comparison to further groups. As for the experimental part:
(§2) Wistar rats fed with standard regimen supplemented with 20% saccharose were used in the drinking water during 60 days before and during the 30 days-treatment with SALINE (negative control), Rimonabant (positive control), Peptide 19 (Pep 19) in the concentration of 50µg/Kg and Peptide 19 (Pep 19) in the concentration of 100 µg/Kg.

For data set [6], the system named is Thin wistar rats. Description: Test in Mesenteric adipose tissue. Conditions: 100 ug/Kg, 3 days orally; in comparison with Rimonabant and/or saline; scale g/100g. The data set is classed as in vivo. The protocol: The measure of the adipose tissue was performed after finishing the treatment. The results are expressed by the mesenteric adipose tissue weight measured at the treatment end (scale of g/100g). Rats administered with vehicle (saline) were subject to the same protocol (control).

Data set [7] relates to animals supplemented with 20% saccharose. Description: Determination of the adiposity ratio in animals supplemented with 20% saccharose (Example 25). Format: in vivo, Wistar rats. Conditions: 100µg/Kg; 30 days-treatment; in comparison to further groups. The protocol:
as §2

In another data set the test system is non-obese wistar rats. The data set can be described thus: Treatment acute model, 3 days orally (Figures 4 to 9). The data set is classed as in vivo. An excerpt:
Furthermore, in a treatment acute model (3 days of treatment orally in non-obese wistar rats) it was verified the brown adipose tissue activation, the retroperitoneal, inguinal and brown adipose tissues reduction, as well the adiposity ratio (Figures 4 to 9), effects not observed with Rimonabant.

The subject of the next data set is Rats. The data set can be described thus: Depression model (forced swim). Format: in vivo. Conditions: stated as contrary to Rimonabant. As for the experimental part: The forced swim test was performed based on the previous tests ([Harkin et al., 2004], [Petit-Demouliere et al., 2005] and [Treit and Menard, 1998]).
Data set [8] concerns animals supplemented with 20% saccharose. The data set can be described thus: Glucose in animals supplemented with 20% saccharose. Format: in vivo, Winstar rats. Conditions: 100 µg/Kg; 15th and 30th days of treatment. As for the experimental part:
Winstar rats fed with standard regimen supplemented with 20% saccharose were used in the drinking water during 60 days before and during the 30 days-treatment with SALINE (negative control), Rimonabant (positive control), Peptide 19 (Pep 19) in the concentration of 50µg/Kg and Peptide 19 (Pep 19) in the concentration of 100 µg/Kg.

Data set [9] has the same test system. The data set can be described thus: Determination of the cholesterol in animals supplemented with 20% saccharose. The data set is classed as in vivo, Wistar rats. As to conditions: after 30 days-treatment. The protocol: as §2
Data set [10] concerns Thin wistar rats. The data set can be described thus: Test in Retroperitoneal adipose tissue. Format: in vivo. Conditions: 100 ug/Kg, 3 days orally; in comparison with Rimonabant and/or saline; scale g/100g. The protocol: The measure of the adipose tissue was performed after finishing the treatment. The results are expressed by the retroperitoneal adipose tissue weight measured for treatment purpose (scale of g/100g). Rats administered with vehicle (saline) were subject to the same protocol (control).

Data set [11] deals with Thin wistar rats. Description: Test in Gonadal adipose tissue. The data set is classed as in vivo. Conditions: 100 ug/Kg, 3 days orally; in comparison with Rimonabant and/or saline; scale g/100g. The protocol:
The measure of the adipose tissue was performed after finishing the treatment. The results are expressed by the gonadal adipose tissue weight measured at the treatment end (scale of g/100g). Rats administered with vehicle (saline) were subject to the same protocol (control).

In data set [12] the test system is animals supplemented with 20% saccharose. The data set can be described thus: Determination of the adiposity ratio in animals supplemented with 20% saccharose (Example 26). The data set is classed as in vivo, Wistar rats. As to conditions: 600µg/Kg; 30 days-treatment; in comparison to further groups. As for the experimental part: (§3) Wistar rats fed with standard regimen supplemented with 20% saccharose were used in the drinking water during 60 days before and during the 30 days-treatment with SALINE (negative control), Rimonabant (positive control), Peptide 19 (Pep 19) in the concentration of 100µg/Kg, 300µg/Kg and 600µg/Kg.

For data set [13] the test system is unchanged. The data set can be described thus: Determination of Triglycerides in animals supplemented with 20% saccharose. The data set is classed as in vivo, Wistar rats. Conditions: 100 µg/Kg; after 30 days-treatment. As for the experimental part: as §2
Data set [14] has the same test system. The data set can be described thus: Determination of the amount of gonadal adipose tissue in animals supplemented with 20% saccharose. The data set is classed as in vivo, Wistar rats. As to conditions: 100µg/Kg; after the 30th day of treatment; in comparison to further groups. The protocol:
as §2

Data set [15] shares this test system. The data set can be described thus: Determination of the amount of mesenteric adipose tissue in animals supplemented with 20% saccharose. Format: in vivo, Wistar rats. Conditions: after the 30th day of treatment, in comparison to further groups. The protocol: as §2
Data set [16] has the same test system. The data set can be described thus: Determination of the insulinemia in animals supplemented with 20% saccharose. Format: in vivo, Wistar rats. As to conditions: 100 µg/Kg; after 30 days-treatment. As for the experimental part:
as §2

Data set [17] concerns Thin wistar rats. The data set can be described thus: Test in Brown adipose tissue. Format: in vivo. As to conditions: 100 ug/Kg, 3 days orally; in comparison with Rimonabant and/or saline; scale g/100g. The protocol: The measure of the adipose tissue was performed after finishing the treatment. The results are expressed by the brown adipose tissue weight measured at the treatment end (scale of g/100g). Rats administered with vehicle (saline) were subject to the same protocol (control).

In data set [18] the test system is animals supplemented with 20% saccharose. The data set can be described thus: Determination of the blood pressure in animals supplemented with 20% saccharose. As to conditions: 600µg/Kg; 30 days-treatment; in comparison to further groups. The data set is classed as in vivo, Wistar rats. As for the experimental part:
as §3

The subject of the next data set is CB2 receptor. Description: ELISA with striate membranes for CB2 receptor, receptor activating percentage regarding the control. The data set is classed as biochemical. The protocol: as §1

No end group written: not given here.

T1 sequence (P21554 whole entry): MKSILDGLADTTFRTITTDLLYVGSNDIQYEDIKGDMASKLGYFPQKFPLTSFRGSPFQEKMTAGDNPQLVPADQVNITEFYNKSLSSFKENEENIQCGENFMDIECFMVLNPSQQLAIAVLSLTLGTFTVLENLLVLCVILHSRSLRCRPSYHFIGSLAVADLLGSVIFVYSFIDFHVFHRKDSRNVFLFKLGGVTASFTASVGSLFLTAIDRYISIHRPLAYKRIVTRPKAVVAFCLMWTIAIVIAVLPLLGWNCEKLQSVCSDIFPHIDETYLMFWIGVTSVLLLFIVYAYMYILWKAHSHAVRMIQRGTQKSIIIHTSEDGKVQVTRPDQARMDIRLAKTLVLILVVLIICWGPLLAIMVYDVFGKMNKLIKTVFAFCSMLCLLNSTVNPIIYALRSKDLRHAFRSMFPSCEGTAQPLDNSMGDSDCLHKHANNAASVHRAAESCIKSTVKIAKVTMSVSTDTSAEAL

With “Cyclic peptide -Asp-Ile-Ile-Ala-Asp-Asp-Glu-Pro-Leu-Thr- [Example 6]”, the “Result (change in the activity of the cyclic form)” value on CB1 receptor (Table 1 summary, in vitro, receptor not stated) is given as “Change in the activity was not detected”.

Take DIIADDAPLT [SeqID:3]: the “Result (activity regarding the CB1)” value with CB1 receptor (Table 1 summary) is “Reduces the activity regarding the CB1 (comparatively the SeqID:1)”. Further, the “activity in CB1 receptors” value in the data set with CB1 receptor is given as “smaller activity in CB1 receptors”.

Regarding DIIADDE [SeqID:4], the “Result (activity regarding the CB1)” value with CB1 receptor (Table 1 summary) is reported as “Increases the activity regarding the CB1”. In addition, the “activity in CB1 receptors” value with CB1 receptor is on record as “improved inverse agonist activity in CB1 receptors”.

With DIIADDEALT [SeqID:5], in the data set with CB1 receptor (Table 1 summary, high dosages), the “Result (high dosages)” value is “became agonist”. Also, the “Result (low dosages)” value with CB1 receptor (Table 1 summary, low dosages) was “the inverse agonist activity was not detected”. Besides, the “activity in the endocannabinoid receptors, high dosages” value with CB1 receptor (high dosages, different dosages of each drug, 2 hours (Figure 14, CB1 receptor)) is given as “agonist activity”. Further, the “activity in the endocannabinoid receptors, low dosages” value with CB1 receptor (low dosages, different dosages of each drug, 2 hours (Figure 14, CB1 receptor)) was “activity inverse agonist”.

Regarding DIIADDEPLT [SeqID:1], the adiposity ratio entry is “smaller” with Thin wistar rats [1] and “reduction” with non-obese wistar rats (3 days of treatment orally). Moreover, in the data set with Thin wistar rats [2], the serum leptin concentration entry was “smaller”. Also, in data set [3], the “weight percentages (% from the animals weight treated with SALINE)” value was “lower weight percentages”. Also, the “inguinal adipose tissue mass” value in the data set on Thin wistar rats [4] is “smaller”. In addition, the “inguinal adipose tissue, corrected by the body weight” value in [5] was “biggest amounts of inguinal adipose tissue”. The “mesenteric adipose tissue mass” value in the data set on Thin wistar rats [6] was “no difference”. The “adiposity ratio (adipose tissue total mass corrected by the body weight)” value in [7] is listed as “biggest amounts of adipose tissue”; in [12], “lower amounts of adipose tissue”. The brown adipose tissue result in the data set with non-obese wistar rats (3 days of treatment orally) is listed as “reduction”. In addition, the “brown adipose tissue activation” value in the data set with non-obese wistar rats (3 days of treatment orally) is recorded as “activation”. Besides, the inguinal adipose tissue entry in the data set with non-obese wistar rats (3 days of treatment orally) is “reduction”. For the same substance, the retroperitoneal adipose tissue entry in the data set on non-obese wistar rats (3 days of treatment orally) is on record as “reduction”. Also, in the data set on non-obese wistar rats (oral administration), the “activity when administered orally” value was “has activity even when administered orally”. Moreover, in the data set with Rats, the “depression (forced swim, immobility time)” value is on record as “does not cause depression”. For the same substance, the glycaemia result in [8] is given as “lower glycaemia”. Further, the “cholesterol percentages (% from SALINE)” value in data set [9] (50µg/Kg) and in data set [9] (100 µg/Kg) was “lower cholesterol percentages” in each case. Also, the “retroperitoneal adipose tissue mass” value in the data set on Thin wistar rats [10] is recorded as “smaller”. For the same substance, the “gonadal adipose tissue mass” value in the data set with Thin wistar rats [11] was “no difference”. For the same substance, in the data set with CB1 receptor, the “activity in CB1 receptors” value was “inverse agonist of the CB1 receptor”. Further, the “percentages of triglycerides (% from SALINE)” value in [13] was “lower percentages of triglycerides”. Also, the “gonadal adipose tissue, corrected by the body weight” value in [14] is on record as “lower percentages of gonadal adipose tissue”. The “mesenteric adipose tissue, corrected by the body weight” value in data set [15] (50 µg/Kg) and in [15] (100µg/Kg) was “lower percentages of mesenteric adipose tissue” each time. In addition, the insulinemia entry in data set [16] was “lower average of insulinemia”. Besides, the “brown adipose tissue mass” value with Thin wistar rats [17] is given as “smaller”. In addition, the blood pressure result in [18] is listed as “lower blood pressure”.

DILADDEPLT [SeqID:2]: in the data set with CB2 receptor (Table 1 summary), the “Result (activity in CB2)” value is recorded as “raises a strong inverse agonist activity in CB2”. For the same substance, the “activity in CB2 receptors” value with CB2 receptor (striate membranes 5µg/pool, 1 µM of each drug, 2 hours, ambient temperature) is recorded as “inverse agonist of the CB2 receptor”. Further, the “Result (activity regarding the CB1)” value with CB1 receptor (Table 1 summary) is “Reduces the activity regarding the CB1”.
